The experiment has as its target T1, ΔF508-CFTR (Homo sapiens, UniProt P13569, DEL508-508).
T1 construct: expressed in transfected cells
The experiment is described as follows: ΔF508-CFTR correction, membrane potential optical (FRET/VIPR) assay. The settings on record: NIH3T3 mouse fibroblasts stably expressing ΔF508-CFTR; for Emax: read-out: % Efficacy. The experiment is classed as cell-based. The source says:
Assays for Detecting and Measuring ΔF508-CFTR Correction Properties of Compounds
Membrane potential optical methods for assaying ΔF508-CFTR modulation properties of compounds
The optical membrane potential assay utilized voltage-sensitive FRET sensors described by Gonzalez and Tsien (See Gonzalez, J. E. and R. Y. Tsien (1995) “Voltage sensing by fluorescence resonance energy transfer in single cells” Biophys J 69(4): 1272-80, and Gonzalez, J. E. and R. Y. Tsien (1997) “Improved indicators of cell membrane potential that use fluorescence resonance energy transfer” Chem Biol 4(4): 269-77) in combination with instrumentation for measuring fluorescence changes such as the Voltage/Ion Probe Reader (VIPR) (See Gonzalez, J. E., K. Oades, et al. (1999) “Cell-based assays and instrumentation for screening ion-channel targets” Drug Discov Today 4(9): 431-439).
These voltage sensitive assays are based on the change in fluorescence resonant energy transfer (FRET) between the membrane-soluble, voltage-sensitive dye, DiSBAC2(3), and a fluorescent phospholipid, CC2-DMPE, which is attached to the outer leaflet of the plasma membrane and acts as a FRET donor. Changes in membrane potential (Vm) cause the negatively charged DiSBAC2(3) to redistribute across the plasma membrane and the amount of energy transfer from CC2-DMPE changes accordingly. The changes in fluorescence emission were monitored using VIPR™ II, which is an integrated liquid handler and fluorescent detector designed to conduct cell-based screens in 96- or 384-well microtiter plates.
1. Identification of Correction Compounds
To identify small molecules that correct the trafficking defect associated with ΔF508-CFTR; a single-addition HTS assay format was developed. The cells were incubated in serum-free medium for 16 hrs at 37° C. in the presence or absence (negative control) of test compound. As a positive control, cells plated in 384-well plates were incubated for 16 hrs at 27° C. to “temperature-correct” ΔF508-CFTR. The cells were subsequently rinsed 3× with Krebs Ringers solution and loaded with the voltage-sensitive dyes. To activate ΔF508-CFTR, 10 μM forskolin and the CFTR potentiator, genistein (20 μM), were added along with Cl^−-free medium to each well. The addition of Cl^−-free medium promoted Cl^− efflux in response to ΔF508-CFTR activation and the resulting membrane depolarization was optically monitored using the FRET-based voltage-sensor dyes.
NIH3T3 mouse fibroblasts stably expressing ΔF508-CFTR are used for optical measurements of membrane potential. The cells are maintained at 37° C. in 5% CO2 and 90% humidity in Dulbecco's modified Eagle's medium supplemented with 2 mM glutamine, 10% fetal bovine serum, 1×NEAA, β-ME, 1× pen/strep, and 25 mM HEPES in 175 cm^2 culture flasks. For all optical assays, the cells were seeded at 30,000/well in 384-well matrigel-coated plates and cultured for 2 hrs at 37° C. before culturing at 27° C. for 24 hrs for the potentiator assay. For the correction assays, the cells are cultured at 27° C. or 37° C. with and without compounds for 16-24 hours Electrophysiological Assays for assaying ΔF508-CFTR modulation properties of compounds

pEC50: −log10 of the molar value.

T1 sequence (P13569 with tags, fused parts or gaps DEL508-508): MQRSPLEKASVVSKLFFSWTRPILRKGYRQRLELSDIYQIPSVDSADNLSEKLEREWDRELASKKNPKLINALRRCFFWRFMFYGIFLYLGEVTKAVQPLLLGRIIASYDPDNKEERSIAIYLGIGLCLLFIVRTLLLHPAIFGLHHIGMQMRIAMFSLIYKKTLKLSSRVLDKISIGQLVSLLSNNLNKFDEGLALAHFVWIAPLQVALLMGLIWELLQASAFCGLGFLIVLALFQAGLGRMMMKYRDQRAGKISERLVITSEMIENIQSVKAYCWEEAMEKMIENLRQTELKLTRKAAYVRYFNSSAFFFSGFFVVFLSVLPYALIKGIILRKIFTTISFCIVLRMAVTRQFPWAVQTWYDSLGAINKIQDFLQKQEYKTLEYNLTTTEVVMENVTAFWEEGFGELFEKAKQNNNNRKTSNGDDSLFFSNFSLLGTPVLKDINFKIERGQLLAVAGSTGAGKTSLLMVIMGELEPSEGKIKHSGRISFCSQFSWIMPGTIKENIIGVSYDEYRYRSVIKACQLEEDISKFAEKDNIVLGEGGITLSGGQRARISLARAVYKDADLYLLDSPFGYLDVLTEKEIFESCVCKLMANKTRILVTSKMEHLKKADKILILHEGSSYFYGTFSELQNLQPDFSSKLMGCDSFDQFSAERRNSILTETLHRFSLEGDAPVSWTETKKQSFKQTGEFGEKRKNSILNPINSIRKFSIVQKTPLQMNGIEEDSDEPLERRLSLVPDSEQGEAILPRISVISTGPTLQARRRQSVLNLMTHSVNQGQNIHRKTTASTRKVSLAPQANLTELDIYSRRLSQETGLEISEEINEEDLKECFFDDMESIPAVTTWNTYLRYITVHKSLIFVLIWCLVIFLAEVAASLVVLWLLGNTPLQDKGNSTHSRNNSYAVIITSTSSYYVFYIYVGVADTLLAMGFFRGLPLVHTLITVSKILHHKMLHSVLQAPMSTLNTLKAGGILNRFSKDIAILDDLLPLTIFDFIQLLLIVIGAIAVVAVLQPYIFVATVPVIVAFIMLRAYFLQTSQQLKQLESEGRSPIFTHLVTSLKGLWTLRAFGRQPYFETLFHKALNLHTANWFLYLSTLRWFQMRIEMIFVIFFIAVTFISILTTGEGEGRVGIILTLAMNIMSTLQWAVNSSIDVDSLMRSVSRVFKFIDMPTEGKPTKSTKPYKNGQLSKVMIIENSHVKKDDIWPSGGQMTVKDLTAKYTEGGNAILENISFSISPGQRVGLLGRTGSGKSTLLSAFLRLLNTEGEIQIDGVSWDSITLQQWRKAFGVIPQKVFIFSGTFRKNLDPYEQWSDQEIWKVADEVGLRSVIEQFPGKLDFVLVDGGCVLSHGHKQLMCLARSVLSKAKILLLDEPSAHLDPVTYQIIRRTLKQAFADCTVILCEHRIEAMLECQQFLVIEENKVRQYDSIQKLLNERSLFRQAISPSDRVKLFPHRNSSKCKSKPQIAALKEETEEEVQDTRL

`COc1ncc(-c2nc(NC(=O)C3(c4ccc5c(c4)OC(F)(F)O5)CC3)ccc2C)cc1F` [Compound 43]: the pEC50 – broadly, the negative decadic logarithm of the EC50, by convention in mol/L – was greater than 5.70 and the Emax was greater than 100%.
For `Cc1ccc(NC(=O)C2(c3ccc4c(c3)OC(F)(F)O4)CC2)nc1-c1cc[nH]c(=O)c1` [Compound 44], in that order: greater than 5.70 and 50 to 100%.
For `COc1ccc(C2(C(=O)Nc3ccc(C)c(-c4ccnc(OC)c4)n3)CC2)cc1` [Compound 45], in that order: greater than 5.70 and greater than 100%.
For `Cc1ccc(NC(=O)C2(c3ccc4c(c3)OC(F)(F)O4)CC2)nc1-c1ccc[nH]c1=O` [Compound 46], in that order: greater than 5.70 and 50 to 100%.
Consider `Cc1ccc(NC(=O)C2(c3ccc4c(c3)OC(F)(F)O4)CC2)nc1-c1ccn(CC(=O)O)c(=O)c1` [Compound 47], for which the pEC50 was greater than 5.70 and the Emax is less than 50%.
In the same order, the values of `COc1ncccc1-c1cc(C)cc(NC(=O)C2(c3ccc4c(c3)OC(F)(F)O4)CC2)n1` [Compound 48] are greater than 5.70 and greater than 100%.
For the compound `Cc1ccc(NC(=O)C2(c3ccc4c(c3)OCO4)CC2)nc1-c1ccc(=O)[nH]c1` [Compound 49], the pEC50 is greater than 5.70 and the Emax fell in the range of 50 to 100%.
In the same order, the values of `Cc1ccc(NC(=O)C2(c3ccc4c(c3)OC(F)(F)O4)CC2)nc1-c1cccc(=O)[nH]1` [Compound 50] are greater than 5.70 and 50 to 100%.
For `O=C(Nc1cccc(-c2ccc[nH]c2=O)n1)C1(c2ccc3c(c2)OC(F)(F)O3)CC1` [Compound 51], in that order: greater than 5.70 and greater than 100%.
With `Cc1ccc(NC(=O)C2(c3ccc4c(c3)OC(F)(F)O4)CC2)nc1-c1ccc(=O)n(C)c1` [Compound 52], the negative-log EC50 (pEC50) was greater than 5.70 and the Emax lay within 50 to 100%.
In the same order, the values of `COc1ncc(-c2nc(NC(=O)C3(c4ccc5c(c4)OC(F)(F)O5)CC3)ccc2C)cc1C(=O)O` [Compound 53] are greater than 5.70 and greater than 100%.
For `Cc1ncc(NC(=O)C2(c3ccc4c(c3)OC(F)(F)O4)CC2)nc1-c1ccc[nH]c1=O` [Compound 54], in that order: greater than 5.70 and 50 to 100%.
For `Cc1ncc(NC(=O)C2(c3ccc4c(c3)OC(F)(F)O4)CC2)nc1-c1ccc(=O)[nH]c1` [Compound 55], in that order: greater than 5.70 and 50 to 100%.
As for `COc1ncccc1-c1nc(NC(=O)C2(c3ccc4c(c3)OC(F)(F)O4)CC2)cc(C)c1C` [Compound 56], the pEC50 was greater than 5.70 and the Emax is greater than 100%.
For `COc1ccc(-c2nc(NC(=O)C3(c4ccc5c(c4)OC(F)(F)O5)CC3)cc(C)c2C)cn1` [Compound 57], in that order: greater than 5.70 and greater than 100%.
On to `COc1cc(-c2nc(NC(=O)C3(c4ccc5c(c4)OC(F)(F)O5)CC3)cc(C)c2C)ccn1` [Compound 58], for which the pEC50 was greater than 5.70 and the Emax was greater than 100%.
In the same order, the values of `Cc1ccc(NC(=O)C2(c3ccc4c(c3)COC4)CC2)nc1-c1c[nH]c(=O)c(C)c1` [Compound 59] are 5.30 to 5.70 and 50 to 100%.
For the compound `Cc1ccc(NC(=O)C2(c3ccc4c(c3)OCCO4)CC2)nc1-c1c[nH]c(=O)c(C)c1` [Compound 60], the pEC50 was greater than 5.70 and the Emax is 50 to 100%.
For `Cc1ccc(NC(=O)C2(c3ccc(Cl)cc3)CC2)nc1-c1c[nH]c(=O)c(C)c1` [Compound 61], in that order: greater than 5.70 and 50 to 100%.
For the compound `COc1ccc(C2(C(=O)Nc3ccc(C)c(-c4c[nH]c(=O)c(C)c4)n3)CC2)cc1Cl` [Compound 62], the negative-log EC50 (pEC50) was greater than 5.70 and the Emax is 50 to 100%.
Consider `COc1cccc(C2(C(=O)Nc3ccc(C)c(-c4c[nH]c(=O)c(C)c4)n3)CC2)c1` [Compound 63], for which the pEC50 was greater than 5.70 and the Emax lay within 50 to 100%.
For `Cc1cc(NC(=O)C2(c3ccc4c(c3)OC(F)(F)O4)CC2)nc(-c2ccn(CCO)c(=O)c2)c1` [Compound 64], in that order: greater than 5.70 and greater than 100%.
As to `Cc1cc(NC(=O)C2(c3ccc4c(c3)OC(F)(F)O4)CC2)nc(-c2ccc(=O)[nH]c2)c1C` [Compound 65], the pEC50 is greater than 5.70 and the Emax was in the range of 50 to 100%.
In the same order, the values of `Cc1cc(NC(=O)C2(c3ccc4c(c3)OC(F)(F)O4)CC2)nc(-c2ccc[nH]c2=O)c1C` [Compound 66] are greater than 5.70 and greater than 100%.
For `Cc1cc(NC(=O)C2(c3ccc4c(c3)OC(F)(F)O4)CC2)nc(-c2cc[nH]c(=O)c2)c1C` [Compound 67], in that order: greater than 5.70 and greater than 100%.
In the same order, the values of `Cc1cc(NC(=O)C2(c3ccc4c(c3)CCO4)CC2)nc(-c2ccc(=O)[nH]c2)c1` [Compound 68] are greater than 5.70 and 50 to 100%.
As for `Cc1cc(NC(=O)C2(c3ccc4c(c3)CCO4)CC2)nc(-c2ccc[nH]c2=O)c1` [Compound 69], the negative-log EC50 (pEC50) was greater than 5.70 and the Emax fell in the range of 50 to 100%.
On to `Cc1cc(NC(=O)C2(c3ccc4c(c3)CCO4)CC2)nc(-c2cc[nH]c(=O)c2)c1` [Compound 70], for which the negative-log EC50 (pEC50) is greater than 5.70 and the Emax lay in the range of 50 to 100%.
Regarding `COc1ncc(-c2nc(NC(=O)C3(c4ccc5c(c4)OC(F)(F)O5)CC3)ccc2C)cc1Cl` [Compound 71], the negative-log EC50 (pEC50) is greater than 5.70 and the Emax was greater than 100%.
In the same order, the values of `COc1cc(-c2nc(NC(=O)C3(c4ccc5c(c4)OC(F)(F)O5)CC3)ccc2C)cnc1OC` [Compound 72] are greater than 5.70 and greater than 100%.
As for `COc1ncc(-c2nc(NC(=O)C3(c4ccc5c(c4)OC(F)(F)O5)CC3)ccc2C)cc1C(=O)N(C)C` [Compound 73], the negative-log EC50 (pEC50) is greater than 5.70 and the Emax lay within 50 to 100%.
In the same order, the values of `Cc1ccc(NC(=O)C2(c3ccc4c(c3)OC(F)(F)O4)CC2)nc1-c1ccc(=O)n(CC(=O)NC#N)c1` [Compound 74] are 5.30 to 5.70 and less than 50%.
Turning to `Cc1ccc(NC(=O)C2(c3ccc4c(c3)CCO4)CC2)nc1-c1c[nH]c(=O)c(C)c1` [Compound 76], the pEC50 is greater than 5.70 and the Emax fell in the range of 50 to 100%.
Turning to `Cc1ccc(NC(=O)C2(c3ccc4c(c3)OC(F)(F)O4)CC2)nc1-c1c[nH]c(=O)c(N)c1` [Compound 77], the negative-log EC50 (pEC50) is greater than 5.70 and the Emax is greater than 100%.
`Cc1ccc(NC(=O)C2(c3ccc4c(c3)CCO4)CC2)nc1-c1ccc(=O)[nH]c1` [Compound 78]: the negative logarithm of the EC50 (pEC50) was greater than 5.70 and the Emax is 50 to 100%.
Take `Cc1ccc(NC(=O)C2(c3ccc4c(c3)OC(F)(F)O4)CC2)nc1-c1ccc(=O)n(C[C@@H](O)CO)c1` [Compound 79]: the negative logarithm of the EC50 (pEC50) was greater than 5.70 and the Emax is greater than 100%.
In the same order, the values of `Cc1ccc(NC(=O)C2(c3ccc4c(c3)CCO4)CC2)nc1-c1cc[nH]c(=O)c1` [Compound 80] are greater than 5.70 and 50 to 100%.
For `CCOC(=O)NCCn1cc(-c2nc(NC(=O)C3(c4ccc5c(c4)OC(F)(F)O5)CC3)ccc2C)ccc1=O` [Compound 81], in that order: greater than 5.70 and greater than 100%.
On to `Cc1ccc(NC(=O)C2(c3ccc4c(c3)OC(F)(F)O4)CC2)nc1-c1cc(F)c[nH]c1=O` [Compound 82], for which the pEC50 is greater than 5.70 and the Emax was greater than 100%.
For `Cc1c[nH]c(=O)c(-c2nc(NC(=O)C3(c4ccc5c(c4)CCO5)CC3)ccc2C)c1` [Compound 83], in that order: greater than 5.70 and 50 to 100%.
In the same order, the values of `Cc1ccc(NC(=O)C2(c3ccc4c(c3)CCO4)CC2)nc1-c1ccc[nH]c1=O` [Compound 84] are greater than 5.70 and 50 to 100%.
For `Cc1ccc(NC(=O)C2(c3ccc4c(c3)OC(F)(F)O4)CC2)nc1-c1cc(Cl)c[nH]c1=O` [Compound 85], in that order: greater than 5.70 and greater than 100%.
For `Cc1ccc(NC(=O)C2(c3ccc4c(c3)OC(F)(F)O4)CC2)nc1-c1cc[nH]c(=O)c1Cl` [Compound 86], the pEC50 is greater than 5.70 and the Emax is greater than 100%.
